According to ChEMBL document CHEMBL1122324, “New antihypertensive cannabinoids” (1983):

Key:
Conditions in all cases: route oral
Rattus norvegicus [1] = experiment: percentage decrease in heart rate after 6 hr at a dose of 3 mg/kg administered perorally in rats; assay type: functional
Rattus norvegicus [2] = experiment: Percentage decrease in systolic blood pressure after 6 hr at 3 mg/kg administered perorally in rats; assay type: functional, Artery
Rattus norvegicus [3] = experiment: percentage decrease in heart rate after 1 hr at a dose of 3 mg/kg administered perorally in rats; assay type: functional
Rattus norvegicus [4] = experiment: percentage decrease in heart rate after 1 hr at a dose of 10 mg/kg administered perorally in rats; assay type: functional
Rattus norvegicus [5] = experiment: percentage decrease in heart rate after 6 hr at a dose of 0.3 mg/kg administered perorally in rats; assay type: functional
Rattus norvegicus [6] = experiment: percentage decrease in heart rate after 24 hr at a dose of 3 mg/kg administered perorally in rats; assay type: functional
Rattus norvegicus [7] = experiment: Percentage decrease in systolic blood pressure after 4 hr at 10 mg/kg administered perorally in rats; assay type: functional, Artery
Rattus norvegicus [8] = experiment: percentage decrease in heart rate after 6 hr at a dose of 1 mg/kg administered perorally in rats; assay type: functional
Rattus norvegicus [9] = experiment: Percentage decrease in systolic blood pressure after 24 hr at 1 mg/kg administered perorally in rats; assay type: functional, Artery
Rattus norvegicus [10] = experiment: percentage decrease in heart rate after 1 hr at a dose of 0.3 mg/kg administered perorally in rats; assay type: functional
Rattus norvegicus [11] = experiment: percentage decrease in heart rate after 1 hr at a dose of 30 mg/kg administered perorally in rats; assay type: functional
Rattus norvegicus [12] = experiment: percentage decrease in heart rate after 4 hr at a dose of 1 mg/kg administered perorally in rats; assay type: functional
Rattus norvegicus [13] = experiment: Percentage decrease in systolic blood pressure after 1 hr at 1 mg/kg administered perorally in rats; assay type: functional, Artery
Rattus norvegicus [14] = experiment: Percentage decrease in systolic blood pressure after 1 hr at 3 mg/kg administered perorally in rats; assay type: functional, Artery
Rattus norvegicus [15] = experiment: percentage decrease in heart rate after 4 hr at a dose of 0.3 mg/kg administered perorally in rats; assay type: functional
Rattus norvegicus [16] = experiment: Percentage decrease in systolic blood pressure after 6 hr at 0.3 mg/kg administered perorally in rats; assay type: functional, Artery
Rattus norvegicus [17] = experiment: Percentage decrease in systolic blood pressure after 4 hr at 1 mg/kg administered perorally in rats; assay type: functional, Artery
Rattus norvegicus [18] = experiment: Percentage decrease in systolic blood pressure after 1 hr at 30 mg/kg administered perorally in rats; assay type: functional, Artery
Rattus norvegicus [19] = experiment: Percentage decrease in systolic blood pressure after 24 hr at 3 mg/kg administered perorally in rats; assay type: functional, Artery
Rattus norvegicus [20] = experiment: percentage decrease in heart rate after 1 hr at a dose of 1 mg/kg administered perorally in rats; assay type: functional
Rattus norvegicus [21] = experiment: Percentage decrease in systolic blood pressure after 24 hr at 0.3 mg/kg administered perorally in rats; assay type: functional, Artery
Rattus norvegicus [22] = experiment: Percentage decrease in systolic blood pressure after 4 hr at 30 mg/kg administered perorally in rats; assay type: functional, Artery
Rattus norvegicus [23] = experiment: Percentage decrease in systolic blood pressure after 24 hr at 30 mg/kg administered perorally in rats; assay type: functional, Artery
Rattus norvegicus [24] = experiment: percentage decrease in heart rate after 24 hr at a dose of 0.3 mg/kg administered perorally in rats; assay type: functional
Rattus norvegicus [25] = experiment: Percentage decrease in systolic blood pressure after 6 hr at 10 mg/kg administered perorally in rats; assay type: functional, Artery
Rattus norvegicus [26] = experiment: Percentage decrease in systolic blood pressure after 24 hr at 10 mg/kg administered perorally in rats; assay type: functional, Artery
Rattus norvegicus [27] = experiment: percentage decrease in heart rate after 4 hr at a dose of 30 mg/kg administered perorally in rats; assay type: functional
Rattus norvegicus [28] = experiment: Percentage decrease in systolic blood pressure after 1 hr at 10 mg/kg administered perorally in rats; assay type: functional, Artery
Rattus norvegicus [29] = experiment: percentage decrease in heart rate after 6 hr at a dose of 10 mg/kg administered perorally in rats; assay type: functional
Rattus norvegicus [30] = experiment: percentage decrease in heart rate after 6 hr at a dose of 30 mg/kg administered perorally in rats; assay type: functional
Rattus norvegicus [31] = experiment: Percentage decrease in systolic blood pressure after 1 hr at 0.3 mg/kg administered perorally in rats; assay type: functional, Artery
Rattus norvegicus [32] = experiment: Percentage decrease in systolic blood pressure after 6 hr at 30 mg/kg administered perorally in rats; assay type: functional, Artery
Rattus norvegicus [33] = experiment: Percentage decrease in systolic blood pressure after 4 hr at 3 mg/kg administered perorally in rats; assay type: functional, Artery
Rattus norvegicus [34] = experiment: percentage decrease in heart rate after 4 hr at a dose of 3 mg/kg administered perorally in rats; assay type: functional
Rattus norvegicus [35] = experiment: Percentage decrease in systolic blood pressure after 6 hr at 1 mg/kg administered perorally in rats; assay type: functional, Artery
Rattus norvegicus [36] = experiment: percentage decrease in heart rate after 24 hr at a dose of 10 mg/kg administered perorally in rats; assay type: functional
Rattus norvegicus [37] = experiment: percentage decrease in heart rate after 24 hr at a dose of 1 mg/kg administered perorally in rats; assay type: functional
Rattus norvegicus [38] = experiment: Percentage decrease in systolic blood pressure after 4 hr at 0.3 mg/kg administered perorally in rats; assay type: functional, Artery
Rattus norvegicus [39] = experiment: percentage decrease in heart rate after 4 hr at a dose of 10 mg/kg administered perorally in rats; assay type: functional
Rattus norvegicus [40] = experiment: Effect on spontaneous motor activity in rats after 1 hr at 1 mg/kg given perorally; assay type: functional
Rattus norvegicus [41] = experiment: Effect on spontaneous motor activity in rats after 2 hr at 0.3 mg/kg given perorally; assay type: functional
Rattus norvegicus [42] = experiment: Percentage decrease in systolic blood pressure (heart rate) after 24 hr at 1 mg/kg administered perorally in rats; assay type: functional, Artery
Rattus norvegicus [43] = experiment: Percentage decrease in systolic blood pressure (heart rate) after 6 hr at 1 mg/kg administered perorally in rats; assay type: functional, Artery
Rattus norvegicus [44] = experiment: Effect on spontaneous motor activity in rats after 1 hr at 0.3 mg/kg given perorally; assay type: functional
Rattus norvegicus [45] = experiment: Cumulative effect on spontaneous motor activity in rats at 300 mg/kg given perorally; assay type: functional
Rattus norvegicus [46] = experiment: Effect on spontaneous motor activity in rats after 2 hr at 3 mg/kg given perorally; assay type: functional
Rattus norvegicus [47] = experiment: Effect on spontaneous motor activity in rats after 2 hr at 1 mg/kg given perorally; assay type: functional
Rattus norvegicus [48] = experiment: Effect on spontaneous motor activity in rats after 1 hr at 3 mg/kg given perorally; assay type: functional
Rattus norvegicus [49] = experiment: Percentage decrease in systolic blood pressure (heart rate) after 4 hr at 3 mg/kg administered perorally in rats; assay type: functional, Artery
Rattus norvegicus [50] = experiment: Effect on spontaneous motor activity in rats after 2 hr at 30 mg/kg given perorally; assay type: functional
Rattus norvegicus [51] = experiment: Cumulative effect on spontaneous motor activity in rats at 3 mg/kg given perorally; assay type: functional
Rattus norvegicus [52] = experiment: Effect on spontaneous motor activity in rats after 2 hr at 0.1 mg/kg given perorally; assay type: functional
Rattus norvegicus [53] = experiment: Cumulative effect on spontaneous motor activity in rats at 0.1 mg/kg given perorally; assay type: functional
Rattus norvegicus [54] = experiment: Percentage decrease in systolic blood pressure (heart rate) after 6 hr at 3 mg/kg administered perorally in rats; assay type: functional, Artery
Rattus norvegicus [55] = experiment: Percentage decrease in systolic blood pressure (heart rate) after 24 hr at 10 mg/kg administered perorally in rats; assay type: functional, Artery
Rattus norvegicus [56] = experiment: Effect on spontaneous motor activity in rats after 1 hr at 0.1 mg/kg given perorally; assay type: functional
Rattus norvegicus [57] = experiment: Percentage decrease in systolic blood pressure (heart rate) after 24 hr at 0.3 mg/kg administered perorally in rats; assay type: functional, Artery
Rattus norvegicus [58] = experiment: Cumulative effect on spontaneous motor activity in rats at 0.3 mg/kg given perorally; assay type: functional
Rattus norvegicus [59] = experiment: Effect on spontaneous motor activity in rats after 1 hr at 10 mg/kg given perorally; assay type: functional
Rattus norvegicus [60] = experiment: Percentage decrease in systolic blood pressure (heart rate) after 4 hr at 0.3 mg/kg administered perorally in rats; assay type: functional, Artery
Rattus norvegicus [61] = experiment: Percentage decrease in systolic blood pressure (heart rate) after 4 hr at 1 mg/kg administered perorally in rats; assay type: functional, Artery
Rattus norvegicus [62] = experiment: Effect on spontaneous motor activity in rats after 2 hr at 10 mg/kg given perorally; assay type: functional
Rattus norvegicus [63] = experiment: Percentage decrease in systolic blood pressure (heart rate) after 1 hr at 0.3 mg/kg administered perorally in rats; assay type: functional, Artery
Rattus norvegicus [64] = experiment: Effect on spontaneous motor activity in rats after 1 hr at 30 mg/kg given perorally; assay type: functional
Rattus norvegicus [65] = experiment: Percentage decrease in systolic blood pressure (heart rate) after 1 hr at 3 mg/kg administered perorally in rats; assay type: functional, Artery
Rattus norvegicus [66] = experiment: Percentage decrease in systolic blood pressure (heart rate) after 4 hr at 10 mg/kg administered perorally in rats; assay type: functional, Artery
Rattus norvegicus [67] = experiment: Percentage decrease in systolic blood pressure (heart rate) after 6 hr at 0.3 mg/kg administered perorally in rats; assay type: functional, Artery
Rattus norvegicus [68] = experiment: Percentage decrease in systolic blood pressure (heart rate) after 1 hr at 10 mg/kg administered perorally in rats; assay type: functional, Artery
Rattus norvegicus [69] = experiment: Percentage decrease in systolic blood pressure (heart rate) after 24 hr at 100 mg/kg administered perorally in rats; assay type: functional, Artery
Rattus norvegicus [70] = experiment: Percentage decrease in systolic blood pressure (heart rate) after 4 hr at 100 mg/kg administered perorally in rats; assay type: functional, Artery

SMILES: C#CCN1CCC2=C(C1)c1c(O)cc(C(C)CCCc3ccc(F)cc3)cc1OC2(C)C (stereo not given)
- Heart rate (Rattus norvegicus [1]): -7%
- Decrease in Systolic blood pressure (Rattus norvegicus [2]): 9%
- Heart rate (Rattus norvegicus [3]): -7%
- Heart rate (Rattus norvegicus [4]): -3%
- Heart rate (Rattus norvegicus [5]): -12%
- Heart rate (Rattus norvegicus [6]): -14%
- Decrease in Systolic blood pressure (Rattus norvegicus [7]): 30%
- Heart rate (Rattus norvegicus [8]): 5%
- Decrease in Systolic blood pressure (Rattus norvegicus [9]): 9%
- Heart rate (Rattus norvegicus [10]): -29%
- Heart rate (Rattus norvegicus [11]): 5%
- Heart rate (Rattus norvegicus [12]): 3%
- Decrease in Systolic blood pressure (Rattus norvegicus [13]): 1%
- Decrease in Systolic blood pressure (Rattus norvegicus [14]): 8%
- Heart rate (Rattus norvegicus [15]): -10%
- Decrease in Systolic blood pressure (Rattus norvegicus [16]): -5%
- Decrease in Systolic blood pressure (Rattus norvegicus [17]): 17%
- Decrease in Systolic blood pressure (Rattus norvegicus [18]): 33%
- Decrease in Systolic blood pressure (Rattus norvegicus [19]): 11%
- Heart rate (Rattus norvegicus [20]): -9%
- Decrease in Systolic blood pressure (Rattus norvegicus [21]): -3%
- Decrease in Systolic blood pressure (Rattus norvegicus [22]): 23%
- Decrease in Systolic blood pressure (Rattus norvegicus [23]): 43%
- Heart rate (Rattus norvegicus [24]): -5%
- Decrease in Systolic blood pressure (Rattus norvegicus [25]): 20%
- Decrease in Systolic blood pressure (Rattus norvegicus [26]): 20%
- Heart rate (Rattus norvegicus [27]): 16%
- Decrease in Systolic blood pressure (Rattus norvegicus [28]): 34%
- Heart rate (Rattus norvegicus [29]): 1%
- Heart rate (Rattus norvegicus [30]): 36%
- Decrease in Systolic blood pressure (Rattus norvegicus [31]): -5%
- Decrease in Systolic blood pressure (Rattus norvegicus [32]): 26%
- Decrease in Systolic blood pressure (Rattus norvegicus [33]): 27%
- Heart rate (Rattus norvegicus [34]): 10%
- Decrease in Systolic blood pressure (Rattus norvegicus [35]): 5%
- Heart rate (Rattus norvegicus [36]): -6%
- Heart rate (Rattus norvegicus [37]): -18%
- Decrease in Systolic blood pressure (Rattus norvegicus [38]): -7%
- Heart rate (Rattus norvegicus [39]): -2%

SMILES: CCCCCCCc1cc(O)c2c(c1)OC(C)(C)c1ccc(C)cc1-2
- Activity (Rattus norvegicus [40]): -32%
- Activity (Rattus norvegicus [41]): 28%
- Decrease in Systolic blood pressure (Rattus norvegicus [42]): -7%
- Decrease in Systolic blood pressure (Rattus norvegicus [43]): 33%
- Activity (Rattus norvegicus [44]): -21%
- Activity (Rattus norvegicus [45]): -89%
- Activity (Rattus norvegicus [46]): -17%
- Activity (Rattus norvegicus [47]): 87%
- Activity (Rattus norvegicus [48]): -20%
- Decrease in Systolic blood pressure (Rattus norvegicus [49]): 44%
- Activity (Rattus norvegicus [50]): -94%
- Activity (Rattus norvegicus [51]): -20%
- Activity (Rattus norvegicus [52]): 10%
- Activity (Rattus norvegicus [53]): -2%
- Decrease in Systolic blood pressure (Rattus norvegicus [54]): 38%
- Decrease in Systolic blood pressure (Rattus norvegicus [55]): 29%
- Activity (Rattus norvegicus [56]): -3%
- Decrease in Systolic blood pressure (Rattus norvegicus [57]): 0%
- Activity (Rattus norvegicus [58]): -17%
- Activity (Rattus norvegicus [59]): -46%
- Decrease in Systolic blood pressure (Rattus norvegicus [60]): 10%
- Decrease in Systolic blood pressure (Rattus norvegicus [61]): 20%
- Activity (Rattus norvegicus [62]): -98%
- Decrease in Systolic blood pressure (Rattus norvegicus [63]): 3%
- Activity (Rattus norvegicus [64]): -88%
- Decrease in Systolic blood pressure (Rattus norvegicus [65]): 3%
- Decrease in Systolic blood pressure (Rattus norvegicus [66]): 58%
- Decrease in Systolic blood pressure (Rattus norvegicus [67]): 2%
- Decrease in Systolic blood pressure (Rattus norvegicus [68]): 9%

SMILES: CCCCCc1cc(O)c2c(c1)OC(C)(C)[C@@H]1CCC(C)=C[C@@H]21 [DRONABINOL]
- Decrease in Systolic blood pressure (Rattus norvegicus [69]): 21%
- Decrease in Systolic blood pressure (Rattus norvegicus [70]): 39%
